Patent US20240374797A1, “SYSTEM AND METHOD FOR EXTRACORPOREAL BLOOD TREATMENT” (Gambro Lundia AB, priority 2020, published 2024)

What was measured:
Assay type in all cases: cell-based, human
glioma cell line A172 = assay: Example 2: CellTiter-Glo readout of cell numbers, ketones added to Medium A-C; conditions: for growth, repeat experiments 2-6 (inconsistent results): ketone added separately (16 mM BOHB or 8 mM Acac), FIG. 14; for number of cells compared to 8 mM LiCl control: 8 mM Acac
Experimental: (§1) To study the effect of a nutrient restricted ketogenic environment on cancer cell growth in vitro, three different cell culture media were formulated. Medium A was full RPMI1640 medium that the cell lines routinely are cultured in. Medium B was used as an approximation of the conditions found in normal human serum. The levels of glucose, glutamine, serine, glycine and arginine were adjusted to match normal physiological levels found in human serum. These nutrients were selected based on their reported use as energy source and effects on cancer cell metabolic state. Medium C was used to emulate the ketogenic nutrient restricted Cancer Dialysis condition. Here, the levels of the selected nutrients were reduced to half of the physiological levels in Medium B, and the ketone body BOHB was added.
(§2) Human cancer cell lines are routinely established and cultured at atmospheric oxygen levels (21% O2), yet, the physiological oxygen levels in tissue is considerably lower and varies from 3-13% [Ward, Biochim Biophys Acta 2008; 1777:1-14. Within the tumor microenvironment, the fast growth rate of cancer cells combined with an often malformed and defective vasculature often results in hypoxic regions with oxygen levels ranging from 0-5%. Given the effects of oxygen levels on energy metabolism [Xie et al., J Biol Chem 2017; 292:16825-16832], and to further mimic the physiological conditions in vivo, the growth of the cancer cell lines in Medium A, B and C was studied at both ambient, 21% O2, and at the more physiological 5% O2.
(§3) Cells were maintained in RPMI-1640 medium (31870-025 GIBCO) with the addition of 10% serum, 200 mM L-glutamine and 1% penicillin-streptomycin (PEST) in humidified chambers at 37° C. and 5% CO2. For hypoxic conditions (5% O2), cells were maintained in a Galaxy 14 S CO2 incubator (Eppendorf) where N2 was used to adjust the O2 level to 5%.
(§4) Medium A: RPMI1640 (31870-025, GIBCO) with the addition of 1% PEST, 200 mM L-glutamine and 10% dialyzed serum. Dialyzed serum was used to reduce the amounts of small molecules such as amino acids.
(§5) Medium B and C were prepared from RPMI1640 modified medium powder without L-glutamine, glucose and amino acids (R9010-01, US Biological Life Sciences). For 1 L medium, 7.4 g powder was dissolved in 900 ml sterile water without heating and 2 g sodium bicarbonate was added. Amino acids listed in Table 5 were added to the same concentration as in full RPMI1640 medium (Table 5). After all additions, the medium was sterilized by filtering through 0.22 um membranes and divided into two bottles.
(§6) In Medium B, to mimic physiological conditions, the levels of glutamine, serine, glycine, arginine and glucose were set to the median of measured levels in human serum, based on data from the Mayo Clinic Laboratories (https://www.mayocliniclabs.com/test-catalog/Clinical+and+Interpretive/9265).
(§7) To model Cancer Dialysis conditions in Medium C, the levels of these nutrients were reduced to 50% of the physiological levels. As for Medium A, 1% PEST and 10% dialyzed serum were added to Medium B and C. Sodium pyruvate, that is a common addition in cell culture medium, was not present in any of the used media.
(§8) Stock solutions of DL-β-Hydroxybutyric acid sodium salt (H6501, Sigma Aldrich) and Lithium Acetoacetate (A8509, Sigma Aldrich) were prepared in water, sterile filtered, aliquoted and stored at −20° C. Lithium Chloride (L7026, Sigma Aldrich) was used as a control for the addition of Lithium in the Li-Acac.
(§9) CellTiter-Glo Luminescent cell viability assay (Promega) was used as a readout of cell numbers according to the manufacturers' instructions. In experiments shown in FIG. 12-13, double plates were seeded and treated. One set of plates was used for collection of medium for lactate measurement (see below) and the CellTiterGlo-assay. The other set of plates was frozen at −80° C. at the end of the experiment. […]

glioma cell line U118MG = assay: as above; conditions: for growth, repeat experiments 2-6 (inconsistent results): ketone added separately (16 mM BOHB or 8 mM Acac), FIG. 15; for number of cells compared to 8 mM LiCl control: 8 mM Acac
Experimental: as §1, §2, §3, §4, §5, §6, §7, §8, §9

[1] = test system: RCC4 (renal cell carcinoma); assay: Study 2: CellTiter-Glo cell viability, DMEM without sodium pyruvate; conditions: increase in BOHB concentration (0, 4, 12 mM), 3 d, FIG. 7
Experimental: (§10) Cell lines established from human colon carcinoma (HCT15, NCI-H508 and COLO205), renal cell carcinoma (769-P, 786-O and RCC4) and glioblastoma (LN-18, A-172 and U-118 MG) were selected for the analysis. All cell lines were obtained from American Type Culture Collection (ATCC, LGC standards, UK) except for RCC4 and HCT15 that was purchased from Sigma-Aldrich (Merck, Germany). In addition, primary human renal cell carcinoma (RCC) cells isolated from patient nephrectomies were included in the study. […]
(§11) Optimal seeding density was determined for each cell line in 96 well plates according to the “Protocol for optimizing cell seeding densities to ensure Log-phase growth”. […] Cover the plate. • Incubate the plate overnight at 37° C., 5% CO2. • Add 50 μL of fresh media to the plate wells to achieve a final volume of 200 μL and incubate for 72 h at 37° C., 5% CO2. • Measure viability using Cell Titer Glo assay according to manufacturer's protocol. • Plot log cell number against luminescence intensity to identify the concentration of cells at which log growth is achieved.
(§12) CellTiter-Glo Luminescent cell viability assay (Promega) was used as a readout of viability.
(§13) For each cell line, optimal number of cells as determined above were seeded into 96-well plates on day 0. […]

A172 (glioblastoma) = assay: as above; conditions: increase in BOHB concentration (0, 4, 12 mM), 3 d, FIG. 7
Experimental: as §10, §11, §12, §13

[2] = test system: RCC4 renal carcinoma cell line; assay: Example 2: CellTiter-Glo readout of cell numbers in Medium A-C; conditions: high levels of BOHB or combination of BOHB and Acac, FIG. 16
Experimental: as §1, with “Here, the levels of the selected nutrients were reduced to half of the physiological levels in Medium B, and the ketone body BOHB was added.” left out
All cell lines were purchased from ATCC (ATCC, LGC standards) except for RCC4 that was from Sigma-Aldrich (Merck). […] Optimal seeding density was determined for each cell line in 96-well plates cultured for 3 days in standard cell culture medium. […]
In Medium B, to mimic physiological conditions, the levels of glutamine, serine, glycine, arginine and glucose were set to the median of measured levels in human serum, based on data from the Mayo Clinic Laboratories (https://www.mayocliniclabs.com/test-catalog/Clinical+and+Interpretive/9265). […]
CellTiter-Glo Luminescent cell viability assay (Promega) was used as a readout of cell numbers according to the manufacturers' instructions. […]

[3] = Medium C, 16 mM BOHB, at both 21 and 5% O2
[4] = Medium A, both normoxia and hypoxia

Row | SMILES | growth inhibitory effect (glioma cell line A172; Medium A, 16 mM BOHB alone, both normoxia and hypoxia, FIG. 12) | number of cells, % of the amount in Medium B without BOHB (glioma cell line A172; Medium B, hypoxic (5% O2), BOHB added (16 mM)) | number of cells, % compared to C-medium without BOHB (glioma cell line A172; [3]) | growth, repeat experiments 2-6 (inconsistent results) (glioma cell line A172; Medium C) | growth inhibitory effect (glioma cell line U118MG; Medium A, 16 mM BOHB alone, both normoxia and hypoxia, FIG. 13) | number of cells, % compared to C-medium without BOHB (glioma cell line U118MG; [3]) | growth, repeat experiments 2-6 (inconsistent results) (glioma cell line U118MG; Medium C) | proliferation of cells [1] | proliferation of cells (A172 (glioblastoma)) | increased sensitivity to ketones in nutrient restricted Medium C [2] | number of cells compared to 8 mM LiCl control (glioma cell line A172; [4]) | number of cells compared to 8 mM LiCl control (glioma cell line A172; Medium B, 5% O2) | number of cells compared to 8 mM LiCl control (glioma cell line A172; Medium B, 21% O2) | amounts of cells compared to 8 mM LiCl control (glioma cell line A172; Medium C, 8 mM Acac alone) | number of cells compared to 8 mM LiCl control (glioma cell line U118MG; [4]) | number of cells compared to 8 mM LiCl control (glioma cell line U118MG; Medium B, 5% O2) | number of cells compared to 8 mM LiCl control (glioma cell line U118MG; Medium B, 21% O2) | amounts of cells compared to 8 mM LiCl control (glioma cell line U118MG; Medium C, 8 mM Acac alone)
1 | CC(O)CC(=O)[O-].[Na+] (racemic) [BOHB, DL-β-Hydroxybutyric acid sodium salt] | no growth inhibitory effect | approximately 70% | around 30% | trend of reduced growth | no growth inhibitory effect | around 30% | trend of reduced growth | suppresses the proliferation of cells | suppresses the proliferation of cells | not found | – | – | – | – | – | – | – | –
2 | CC(=O)CC(=O)[O-].[Li+] [Acac, Lithium Acetoacetate] | – | – | – | trend of reduced growth | – | – | trend of reduced growth | – | – | – | did not reduce the number of cells further | only at 21% O2 | reduced the number of cells significantly | did not significantly reduce the amounts of cells | did not reduce the number of cells further | only at 21% O2 | reduced the number of cells significantly | did not significantly reduce the amounts of cells
